Literature values in article PMC12241124 (Frontiers in Microbiology, 2025).

Conditions: ref Mygind et al., 2005

## plectasin
  terminal serum elimination half-life: 51 min
